In PubChem BioAssay (NCI):
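Interpolation was linear, between the two tested concentrations surrounding the appropriate level; five concentrations were tested over 48 hours in 96-well plates. TGI marks complete inhibition of growth.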

Experiments:
Assay in all cases: DTP human tumour cell line panel, 48 h
COLO 205 colon = test system: COLO 205 colon
HT29 colon = test system: HT29 colon
SN12C renal = test system: SN12C renal
HCT-116 colon = test system: HCT-116 colon
UO-31 renal = test system: UO-31 renal
NCI-H522 lung = test system: NCI-H522 lung
NCI-H23 lung = test system: NCI-H23 lung
SNB-19 CNS = test system: SNB-19 CNS
CAKI-1 renal = test system: CAKI-1 renal
HOP-18 NSCLC = test system: HOP-18 NSCLC
TK-10 renal = test system: TK-10 renal
NCI-H226 lung = test system: NCI-H226 lung
M14 melanoma = test system: M14 melanoma
786-0 renal = test system: 786-0 renal
HOP-92 NSCLC = test system: HOP-92 NSCLC
MALME-3M melanoma = test system: MALME-3M melanoma
UACC-257 melanoma = test system: UACC-257 melanoma
OVCAR-4 ovarian = test system: OVCAR-4 ovarian
HCC-2998 colon = test system: HCC-2998 colon
HOP-62 NSCLC = test system: HOP-62 NSCLC
SK-MEL-5 melanoma = test system: SK-MEL-5 melanoma
SK-OV-3 ovarian = test system: SK-OV-3 ovarian
SF-539 CNS = test system: SF-539 CNS
SNB-75 CNS = test system: SNB-75 CNS
KM20L2 colon = test system: KM20L2 colon
LOX IMVI melanoma = test system: LOX IMVI melanoma
HCT-15 colon = test system: HCT-15 colon
U251 CNS = test system: U251 CNS
MOLT-4 leukemia = test system: MOLT-4 leukemia
RXF 393 renal = test system: RXF 393 renal
UACC-62 melanoma = test system: UACC-62 melanoma
SK-MEL-28 melanoma = test system: SK-MEL-28 melanoma
DLD-1 colon = test system: DLD-1 colon
EKVX NSCLC = test system: EKVX NSCLC
OVCAR-3 ovarian = test system: OVCAR-3 ovarian
CCRF-CEM leukemia = test system: CCRF-CEM leukemia
OVCAR-5 ovarian = test system: OVCAR-5 ovarian
A549 NSCLC = test system: A549 NSCLC
KM12 colon = test system: KM12 colon
SR leukemia = test system: SR leukemia
M19-MEL melanoma = test system: M19-MEL melanoma
DMS 273 small cell lung = test system: DMS 273 small cell lung
NCI-H460 lung = test system: NCI-H460 lung
RPMI-8226 leukemia = test system: RPMI-8226 leukemia
SF-295 CNS = test system: SF-295 CNS
K-562 leukemia = test system: K-562 leukemia
SF-268 CNS = test system: SF-268 CNS
DMS 114 small cell lung = test system: DMS 114 small cell lung
HL-60(TB) leukemia = test system: HL-60(TB) leukemia
SW-620 colon = test system: SW-620 colon
ACHN renal = test system: ACHN renal
IGROV1 ovarian = test system: IGROV1 ovarian
LXFL 529 NSCLC = test system: LXFL 529 NSCLC
OVCAR-8 ovarian = test system: OVCAR-8 ovarian
SK-MEL-2 melanoma = test system: SK-MEL-2 melanoma
SNB-78 CNS = test system: SNB-78 CNS
A498 renal = test system: A498 renal
XF 498 CNS = test system: XF 498 CNS
HS 578T breast = test system: HS 578T breast
DU-145 prostate = test system: DU-145 prostate
MDA-MB-231 breast = test system: MDA-MB-231 breast
MDA-MB-435 = test system: MDA-MB-435
BT-549 breast = test system: BT-549 breast
MDA-N = test system: MDA-N
PC-3 prostate = test system: PC-3 prostate
NCI/ADR-RES ovarian = test system: NCI/ADR-RES ovarian
MCF7 breast = test system: MCF7 breast
T-47D breast = test system: T-47D breast

Measured: TGI

O=C1C2C=CC(n3[nH]c(=O)n(Cc4ccccc4)c3=O)CC2C(=O)N1c1ccc(Br)cc1 (stereo not drawn)
not listed: XF 498 CNS | HS 578T breast | DU-145 prostate | MDA-MB-231 breast | MDA-MB-435 | BT-549 breast | MDA-N | PC-3 prostate | NCI/ADR-RES ovarian | MCF7 breast | T-47D breast
> 100 µM: all other assays above

Cc1c(C(=O)O)n(C)c(=O)n(C)c1=O
not listed: SR leukemia | RPMI-8226 leukemia | DMS 114 small cell lung | SNB-78 CNS | HS 578T breast | DU-145 prostate | MDA-MB-231 breast | MDA-MB-435 | BT-549 breast | MDA-N | PC-3 prostate | NCI/ADR-RES ovarian | MCF7 breast | T-47D breast
> 100 µM: all other assays above

N#Cc1ccccc1NC(=O)C(=O)C1NC(=S)NC1=O (stereo not drawn)
not listed: UO-31 renal | NCI-H522 lung | SK-OV-3 ovarian | DMS 273 small cell lung | SK-MEL-2 melanoma | SNB-78 CNS | HS 578T breast | DU-145 prostate | MDA-MB-231 breast | MDA-MB-435 | BT-549 breast | MDA-N | PC-3 prostate | NCI/ADR-RES ovarian | MCF7 breast | T-47D breast
> 100 µM: all other assays above

CCC(=O)OC1CCn2c1nc1c2C(=O)C(C)=C(NC(C)=O)C1=N (stereo not drawn)
3.95 µM: ACHN renal
3.21 µM: SF-539 CNS
5.48 µM: EKVX NSCLC
6.06 µM: 786-0 renal
2.89 µM: OVCAR-8 ovarian
2.39 µM: HCT-116 colon
3.53 µM: DMS 114 small cell lung
2.44 µM: SW-620 colon
3.43 µM: SK-MEL-2 melanoma
6.27 µM: HCT-15 colon
3.18 µM: COLO 205 colon
0.365 µM: M19-MEL melanoma
4.21 µM: A498 renal
3.5 µM: SK-MEL-28 melanoma
3.31 µM: OVCAR-3 ovarian
1.94 µM: CAKI-1 renal
2.74 µM: MALME-3M melanoma
5.15 µM: HOP-92 NSCLC
4.63 µM: NCI-H226 lung
6.05 µM: SNB-78 CNS
2.66 µM: OVCAR-4 ovarian
12.8 µM: TK-10 renal
4.31 µM: XF 498 CNS
2.79 µM: NCI-H522 lung
16.8 µM: SNB-19 CNS
5.54 µM: IGROV1 ovarian
2.5 µM: UACC-257 melanoma
3.19 µM: DLD-1 colon
5.37 µM: KM12 colon
3.26 µM: HOP-18 NSCLC
2.55 µM: SK-MEL-5 melanoma
3.47 µM: HOP-62 NSCLC | OVCAR-5 ovarian
3.11 µM: DMS 273 small cell lung
3.38 µM: KM20L2 colon
4.94 µM: SF-268 CNS
2.71 µM: UACC-62 melanoma
4.64 µM: UO-31 renal
> 100 µM: SR leukemia | K-562 leukemia
3.36 µM: HT29 colon
10.2 µM: A549 NSCLC
3 µM: LOX IMVI melanoma | NCI-H460 lung
4.12 µM: SF-295 CNS
13 µM: HCC-2998 colon
4.45 µM: SNB-75 CNS
3.23 µM: NCI-H23 lung
3.02 µM: SN12C renal
17.2 µM: U251 CNS
6.82 µM: SK-OV-3 ovarian

CC1=C(SC#N)S(=O)(=O)N(c2ccccc2)C(C)=C1SC#N
57.8 µM: MOLT-4 leukemia
76.5 µM: SNB-19 CNS
72.3 µM: XF 498 CNS
67.1 µM: SF-295 CNS
66 µM: K-562 leukemia
45.8 µM: CCRF-CEM leukemia
81.6 µM: NCI-H226 lung
35.4 µM: U251 CNS
89.9 µM: SK-OV-3 ovarian
88.7 µM: HOP-92 NSCLC
38.3 µM: DMS 114 small cell lung
65.5 µM: SR leukemia
69.8 µM: HCT-116 colon
92.1 µM: A498 renal
63.9 µM: SNB-75 CNS
not listed: COLO 205 colon | HOP-18 NSCLC | M14 melanoma | HOP-62 NSCLC | KM20L2 colon | EKVX NSCLC | OVCAR-3 ovarian | HS 578T breast | DU-145 prostate | MDA-MB-231 breast | MDA-MB-435 | BT-549 breast | MDA-N | PC-3 prostate | NCI/ADR-RES ovarian | MCF7 breast | T-47D breast
> 100 µM: all other assays above

COC1=CC(C2c3cc4c(cc3[C@@H](Nc3ccc(F)cc3)C3COC(=O)[C@H]23)OCO4)=CC(=O)C1=O (stereo partly drawn)
> 49.2 µM: K-562 leukemia
9.97 µM: NCI-H23 lung
> 63.9 µM: UACC-257 melanoma
20.4 µM: A549 NSCLC
11.8 µM: SF-295 CNS
16.3 µM: DMS 273 small cell lung | LXFL 529 NSCLC
24.8 µM: SN12C renal
> 68.3 µM: HT29 colon
30.5 µM: HCT-116 colon
> 29 µM: CCRF-CEM leukemia
> 23.6 µM: SR leukemia
34.5 µM: KM12 colon
31.9 µM: CAKI-1 renal
30.2 µM: UO-31 renal
> 66.5 µM: SNB-19 CNS | OVCAR-3 ovarian
23.1 µM: SK-OV-3 ovarian
> 51.4 µM: OVCAR-8 ovarian
> 61.2 µM: OVCAR-4 ovarian
31.7 µM: HOP-92 NSCLC
> 50.1 µM: SW-620 colon
20.7 µM: UACC-62 melanoma
14.5 µM: MOLT-4 leukemia
20.3 µM: SF-539 CNS
11.4 µM: 786-0 renal
> 74.6 µM: KM20L2 colon
44 µM: IGROV1 ovarian
> 100 µM: RXF 393 renal | DLD-1 colon | RPMI-8226 leukemia
35.6 µM: LOX IMVI melanoma
45.8 µM: SK-MEL-28 melanoma
98.2 µM: OVCAR-5 ovarian
16 µM: A498 renal
27.9 µM: XF 498 CNS
26.9 µM: HCT-15 colon
> 43.5 µM: SK-MEL-5 melanoma
14.9 µM: NCI-H522 lung | NCI-H460 lung
13.7 µM: U251 CNS
5.9 µM: HOP-62 NSCLC
> 96.4 µM: SNB-78 CNS
39.3 µM: NCI-H226 lung
41.5 µM: COLO 205 colon
23.4 µM: ACHN renal
36.6 µM: MALME-3M melanoma | SF-268 CNS
36.3 µM: M14 melanoma
> 59.1 µM: EKVX NSCLC
55.7 µM: M19-MEL melanoma
> 63 µM: TK-10 renal
39.6 µM: HCC-2998 colon
> 45.1 µM: SNB-75 CNS
> 21.4 µM: HL-60(TB) leukemia

COc1ccccc1NC(=O)CC(=O)NN
not listed: HOP-18 NSCLC | M14 melanoma | KM20L2 colon | DLD-1 colon | M19-MEL melanoma | DMS 273 small cell lung | DMS 114 small cell lung | LXFL 529 NSCLC | SNB-78 CNS | XF 498 CNS
> 100 µM: all other assays above
